Measurements: ChEMBL document CHEMBL1201862, “PubChem BioAssay data set” (2004)
The source made the active and inactive calls.

Columns and labels:
Cytochrome P450 2D6 [1] = target: T1, Cytochrome P450 2D6 (Homo sapiens, UniProt P10635); assay: qHTS Assay for Inhibitors and Substrates of Cytochrome P450 2D6. [Related pubchem assays: 410 ]; assay type: ADME; conditions: read-out: Potency
Cytochrome P450 2C9 = Cytochrome P450 2C9 (Homo sapiens, UniProt P11712); conditions: Potency
[2] = target: Peroxisome proliferator-activated receptor gamma/Nuclear receptor coactivator 2 (Homo sapiens, UniProt P37231); assay: (§1) TR-FRET dose response biochemical High Throughput Screening assay for agonists of the steroid receptor coactivator 2 (SRC-2) recruitment by the peroxisome proliferator-activated receptor gamma (PPAR gamma): non-selective agonists. [Related pubchem assays: 1297, 1032 ]; assay type: functional
Sequence of Peroxisome proliferator-activated receptor gamma/Nuclear receptor coactivator 2 (P37231 whole entry): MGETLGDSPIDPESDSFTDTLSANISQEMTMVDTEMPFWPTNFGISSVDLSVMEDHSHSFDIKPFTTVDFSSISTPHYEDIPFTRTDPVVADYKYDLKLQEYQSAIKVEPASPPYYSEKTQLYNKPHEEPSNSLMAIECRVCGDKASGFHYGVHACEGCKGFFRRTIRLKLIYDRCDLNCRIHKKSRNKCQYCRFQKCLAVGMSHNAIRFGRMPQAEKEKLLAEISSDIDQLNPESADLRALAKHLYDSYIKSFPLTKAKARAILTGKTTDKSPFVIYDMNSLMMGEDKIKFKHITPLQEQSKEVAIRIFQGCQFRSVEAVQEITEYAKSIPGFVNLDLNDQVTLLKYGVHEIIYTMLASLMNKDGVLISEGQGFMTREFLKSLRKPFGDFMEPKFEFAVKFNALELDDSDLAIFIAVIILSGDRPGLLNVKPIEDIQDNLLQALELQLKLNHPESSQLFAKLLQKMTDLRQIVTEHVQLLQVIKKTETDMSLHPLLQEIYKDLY
Sequence of Peroxisome proliferator-activated receptor gamma/Nuclear receptor coactivator 2 (Q15596 whole entry, further chain): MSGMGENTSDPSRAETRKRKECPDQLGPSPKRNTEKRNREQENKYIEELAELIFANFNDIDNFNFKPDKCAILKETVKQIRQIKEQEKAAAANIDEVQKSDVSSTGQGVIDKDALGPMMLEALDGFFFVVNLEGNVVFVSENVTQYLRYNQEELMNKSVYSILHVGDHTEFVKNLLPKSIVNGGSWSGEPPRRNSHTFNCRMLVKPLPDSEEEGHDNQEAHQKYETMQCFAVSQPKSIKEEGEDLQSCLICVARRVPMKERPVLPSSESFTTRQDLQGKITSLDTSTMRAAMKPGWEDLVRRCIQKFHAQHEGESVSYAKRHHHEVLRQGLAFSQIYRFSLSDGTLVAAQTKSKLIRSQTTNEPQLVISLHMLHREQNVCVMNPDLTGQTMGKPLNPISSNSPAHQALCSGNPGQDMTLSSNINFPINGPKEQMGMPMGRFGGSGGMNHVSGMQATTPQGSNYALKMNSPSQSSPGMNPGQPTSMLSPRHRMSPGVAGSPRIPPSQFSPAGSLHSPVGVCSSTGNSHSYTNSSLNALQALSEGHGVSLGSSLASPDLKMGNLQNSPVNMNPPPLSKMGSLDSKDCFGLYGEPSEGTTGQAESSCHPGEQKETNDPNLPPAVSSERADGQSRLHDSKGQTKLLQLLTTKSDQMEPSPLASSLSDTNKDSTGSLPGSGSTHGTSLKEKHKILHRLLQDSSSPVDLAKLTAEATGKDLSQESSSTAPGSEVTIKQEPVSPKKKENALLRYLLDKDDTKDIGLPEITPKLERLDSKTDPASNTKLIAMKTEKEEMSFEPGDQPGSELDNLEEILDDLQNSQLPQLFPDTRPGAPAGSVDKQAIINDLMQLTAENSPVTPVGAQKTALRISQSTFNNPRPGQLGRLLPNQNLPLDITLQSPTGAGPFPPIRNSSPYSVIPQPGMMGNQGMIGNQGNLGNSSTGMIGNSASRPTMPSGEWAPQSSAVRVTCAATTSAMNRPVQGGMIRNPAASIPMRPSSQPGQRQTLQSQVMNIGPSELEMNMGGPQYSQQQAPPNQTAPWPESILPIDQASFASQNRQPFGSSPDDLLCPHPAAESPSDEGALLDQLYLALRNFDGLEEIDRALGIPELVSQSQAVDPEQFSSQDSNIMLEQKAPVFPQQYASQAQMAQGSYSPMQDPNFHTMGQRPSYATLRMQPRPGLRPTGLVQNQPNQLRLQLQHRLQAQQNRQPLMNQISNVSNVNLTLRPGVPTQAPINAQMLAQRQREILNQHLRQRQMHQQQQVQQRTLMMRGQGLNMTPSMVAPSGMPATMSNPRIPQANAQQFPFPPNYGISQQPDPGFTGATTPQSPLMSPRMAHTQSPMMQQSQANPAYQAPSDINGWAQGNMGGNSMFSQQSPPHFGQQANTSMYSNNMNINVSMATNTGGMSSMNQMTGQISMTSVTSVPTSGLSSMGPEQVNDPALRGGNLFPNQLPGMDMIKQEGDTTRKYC

[3] = target: Peroxisome proliferator-activated receptor gamma/Nuclear receptor coactivator 3 (Homo sapiens, UniProt P37231); assay: as §1, with “3 (SRC-3)” for “2 (SRC-2)”, “1301 (Confirmation screen.), 1048 (Primary screen.)]” for “1297, 1032 ]”; assay type: functional
[4] = target: Peroxisome proliferator-activated receptor gamma/Nuclear receptor coactivator 1 (Homo sapiens, UniProt P37231); assay: as §1, with “1 (SRC-1)” for “2 (SRC-2)”, “assays (depositor defined):AID1300, AID1808, AID504735, AID631]” for “assays: 1297, 1032 ]”; assay type: protein assay
Sequence of Peroxisome proliferator-activated receptor gamma/Nuclear receptor coactivator 1 (P37231 whole entry): as the sequence (P37231 whole entry) above
Sequence of Peroxisome proliferator-activated receptor gamma/Nuclear receptor coactivator 1 (Q15788 whole entry, further chain): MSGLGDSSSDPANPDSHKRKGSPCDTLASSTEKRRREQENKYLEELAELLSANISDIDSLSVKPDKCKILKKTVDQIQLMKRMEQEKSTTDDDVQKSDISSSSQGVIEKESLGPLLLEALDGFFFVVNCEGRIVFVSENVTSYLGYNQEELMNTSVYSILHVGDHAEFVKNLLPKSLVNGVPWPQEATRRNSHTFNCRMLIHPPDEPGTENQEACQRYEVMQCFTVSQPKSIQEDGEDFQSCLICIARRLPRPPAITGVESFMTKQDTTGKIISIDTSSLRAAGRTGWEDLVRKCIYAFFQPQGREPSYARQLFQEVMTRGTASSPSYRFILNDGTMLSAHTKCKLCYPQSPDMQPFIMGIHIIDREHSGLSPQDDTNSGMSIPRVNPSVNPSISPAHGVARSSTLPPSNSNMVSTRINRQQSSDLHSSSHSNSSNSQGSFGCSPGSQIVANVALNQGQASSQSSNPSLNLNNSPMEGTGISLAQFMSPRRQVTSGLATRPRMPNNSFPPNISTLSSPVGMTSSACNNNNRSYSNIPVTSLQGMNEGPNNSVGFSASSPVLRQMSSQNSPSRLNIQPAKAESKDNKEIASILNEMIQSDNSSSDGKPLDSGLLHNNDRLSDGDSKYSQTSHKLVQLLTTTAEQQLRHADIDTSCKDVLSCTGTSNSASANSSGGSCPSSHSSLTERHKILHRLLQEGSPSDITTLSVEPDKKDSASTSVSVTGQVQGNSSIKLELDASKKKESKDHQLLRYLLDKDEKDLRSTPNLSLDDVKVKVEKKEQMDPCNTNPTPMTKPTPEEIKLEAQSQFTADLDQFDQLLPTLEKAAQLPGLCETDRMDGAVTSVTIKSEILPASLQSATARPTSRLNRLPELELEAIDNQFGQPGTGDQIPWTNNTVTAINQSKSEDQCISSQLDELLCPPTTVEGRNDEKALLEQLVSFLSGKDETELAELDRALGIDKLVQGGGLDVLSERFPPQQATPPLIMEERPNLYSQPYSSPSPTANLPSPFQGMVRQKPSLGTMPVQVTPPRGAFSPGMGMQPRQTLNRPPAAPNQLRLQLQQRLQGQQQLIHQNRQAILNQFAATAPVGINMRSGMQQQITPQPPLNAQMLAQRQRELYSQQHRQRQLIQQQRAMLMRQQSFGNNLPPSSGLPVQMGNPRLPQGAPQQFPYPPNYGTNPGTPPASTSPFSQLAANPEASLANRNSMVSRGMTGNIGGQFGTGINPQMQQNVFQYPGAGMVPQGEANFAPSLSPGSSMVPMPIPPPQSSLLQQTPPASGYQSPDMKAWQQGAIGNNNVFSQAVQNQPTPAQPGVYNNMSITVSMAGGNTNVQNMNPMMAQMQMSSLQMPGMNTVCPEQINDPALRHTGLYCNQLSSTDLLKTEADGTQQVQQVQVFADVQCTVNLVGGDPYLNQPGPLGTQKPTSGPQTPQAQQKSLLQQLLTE

CAAX prenyl protease 2 = target: T2, CAAX prenyl protease 2 (Saccharomyces cerevisiae S288c, UniProt Q03530); assay type: biochemical
T2 sequence (Q03530 whole entry): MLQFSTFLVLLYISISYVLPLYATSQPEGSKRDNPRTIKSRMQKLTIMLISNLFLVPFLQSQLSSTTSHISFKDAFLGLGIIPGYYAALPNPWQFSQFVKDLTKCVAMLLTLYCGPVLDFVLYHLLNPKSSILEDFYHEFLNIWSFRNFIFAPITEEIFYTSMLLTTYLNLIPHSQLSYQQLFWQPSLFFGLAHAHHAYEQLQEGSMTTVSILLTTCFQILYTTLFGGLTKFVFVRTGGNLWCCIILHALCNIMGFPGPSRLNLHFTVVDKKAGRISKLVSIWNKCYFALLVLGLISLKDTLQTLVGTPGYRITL

[5] = target: G-protein coupled receptor 55 (Homo sapiens, UniProt Q9Y2T6); assay: GPR55 agonists via beta-arrestin recruitment, primary screen, imaging, U2OS cells, beta-arrestin-GFP redistribution (AID 1961); assay type: functional
[6] = Counterscreen for AddAB inhibitors: absorbance-based bacterial cell-based high throughput dose response assay for inhibitors of bacterial viability. [Related pubchem assays (depositor defined):AID435030, AID449728, AID449731, AID488942, AID488955, AID488956]; assay type: functional
Exodeoxyribonuclease V = target: T3, Exodeoxyribonuclease V (Escherichia coli (strain K12), UniProt P04993+P07648+P08394); assay: E. coli RecBCD inhibitors, dose response, counter-screen for AddAB inhibitor project, absorbance, V66 E. coli, mutant T4 phage (AID 492957); assay type: functional, cell-based, Escherichia coli str. K-12 substr. MG1655
T3 sequence (P04993 whole entry): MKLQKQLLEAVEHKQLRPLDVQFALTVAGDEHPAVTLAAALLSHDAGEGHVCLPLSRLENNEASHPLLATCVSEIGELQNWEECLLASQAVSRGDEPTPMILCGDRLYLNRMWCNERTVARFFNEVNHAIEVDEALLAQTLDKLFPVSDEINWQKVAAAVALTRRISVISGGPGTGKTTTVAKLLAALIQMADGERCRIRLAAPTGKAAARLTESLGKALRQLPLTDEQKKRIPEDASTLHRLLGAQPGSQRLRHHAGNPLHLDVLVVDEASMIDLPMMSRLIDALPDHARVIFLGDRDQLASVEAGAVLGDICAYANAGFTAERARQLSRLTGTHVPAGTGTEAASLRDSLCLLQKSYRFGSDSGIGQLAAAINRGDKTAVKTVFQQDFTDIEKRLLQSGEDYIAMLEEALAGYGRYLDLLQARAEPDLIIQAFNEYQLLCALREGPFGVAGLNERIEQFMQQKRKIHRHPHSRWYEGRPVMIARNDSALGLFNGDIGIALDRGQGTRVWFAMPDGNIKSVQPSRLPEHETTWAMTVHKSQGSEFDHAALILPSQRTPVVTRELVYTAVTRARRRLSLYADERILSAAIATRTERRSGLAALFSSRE
T3 sequence (P07648 whole entry): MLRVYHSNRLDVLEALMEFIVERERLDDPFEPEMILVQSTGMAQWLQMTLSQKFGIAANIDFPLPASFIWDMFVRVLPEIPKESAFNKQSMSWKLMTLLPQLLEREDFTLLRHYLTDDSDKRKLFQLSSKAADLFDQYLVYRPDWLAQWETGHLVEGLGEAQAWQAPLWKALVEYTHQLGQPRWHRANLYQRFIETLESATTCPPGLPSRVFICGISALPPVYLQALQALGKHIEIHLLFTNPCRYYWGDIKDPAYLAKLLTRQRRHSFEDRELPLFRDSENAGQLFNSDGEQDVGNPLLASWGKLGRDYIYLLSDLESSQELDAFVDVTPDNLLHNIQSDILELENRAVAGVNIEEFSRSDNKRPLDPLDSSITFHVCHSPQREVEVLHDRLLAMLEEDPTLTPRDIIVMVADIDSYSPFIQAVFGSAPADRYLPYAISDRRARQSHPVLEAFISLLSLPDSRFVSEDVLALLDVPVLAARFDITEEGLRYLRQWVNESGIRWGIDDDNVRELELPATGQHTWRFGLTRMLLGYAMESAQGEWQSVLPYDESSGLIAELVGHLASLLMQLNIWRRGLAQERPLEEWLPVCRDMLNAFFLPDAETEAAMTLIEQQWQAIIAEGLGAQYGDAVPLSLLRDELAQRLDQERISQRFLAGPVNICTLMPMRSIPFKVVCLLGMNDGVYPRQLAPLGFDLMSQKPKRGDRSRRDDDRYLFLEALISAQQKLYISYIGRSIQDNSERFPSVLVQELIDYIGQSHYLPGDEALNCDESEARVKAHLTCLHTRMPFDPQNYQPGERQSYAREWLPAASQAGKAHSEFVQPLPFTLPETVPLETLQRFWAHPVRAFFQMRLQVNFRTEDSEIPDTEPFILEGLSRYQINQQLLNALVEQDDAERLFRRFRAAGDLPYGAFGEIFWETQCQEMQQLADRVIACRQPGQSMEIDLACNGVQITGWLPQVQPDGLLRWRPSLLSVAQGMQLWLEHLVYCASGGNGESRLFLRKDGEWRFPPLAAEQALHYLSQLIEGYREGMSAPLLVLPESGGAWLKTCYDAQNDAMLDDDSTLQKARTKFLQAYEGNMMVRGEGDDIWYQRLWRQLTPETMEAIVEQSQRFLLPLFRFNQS
T3 sequence (P08394 whole entry): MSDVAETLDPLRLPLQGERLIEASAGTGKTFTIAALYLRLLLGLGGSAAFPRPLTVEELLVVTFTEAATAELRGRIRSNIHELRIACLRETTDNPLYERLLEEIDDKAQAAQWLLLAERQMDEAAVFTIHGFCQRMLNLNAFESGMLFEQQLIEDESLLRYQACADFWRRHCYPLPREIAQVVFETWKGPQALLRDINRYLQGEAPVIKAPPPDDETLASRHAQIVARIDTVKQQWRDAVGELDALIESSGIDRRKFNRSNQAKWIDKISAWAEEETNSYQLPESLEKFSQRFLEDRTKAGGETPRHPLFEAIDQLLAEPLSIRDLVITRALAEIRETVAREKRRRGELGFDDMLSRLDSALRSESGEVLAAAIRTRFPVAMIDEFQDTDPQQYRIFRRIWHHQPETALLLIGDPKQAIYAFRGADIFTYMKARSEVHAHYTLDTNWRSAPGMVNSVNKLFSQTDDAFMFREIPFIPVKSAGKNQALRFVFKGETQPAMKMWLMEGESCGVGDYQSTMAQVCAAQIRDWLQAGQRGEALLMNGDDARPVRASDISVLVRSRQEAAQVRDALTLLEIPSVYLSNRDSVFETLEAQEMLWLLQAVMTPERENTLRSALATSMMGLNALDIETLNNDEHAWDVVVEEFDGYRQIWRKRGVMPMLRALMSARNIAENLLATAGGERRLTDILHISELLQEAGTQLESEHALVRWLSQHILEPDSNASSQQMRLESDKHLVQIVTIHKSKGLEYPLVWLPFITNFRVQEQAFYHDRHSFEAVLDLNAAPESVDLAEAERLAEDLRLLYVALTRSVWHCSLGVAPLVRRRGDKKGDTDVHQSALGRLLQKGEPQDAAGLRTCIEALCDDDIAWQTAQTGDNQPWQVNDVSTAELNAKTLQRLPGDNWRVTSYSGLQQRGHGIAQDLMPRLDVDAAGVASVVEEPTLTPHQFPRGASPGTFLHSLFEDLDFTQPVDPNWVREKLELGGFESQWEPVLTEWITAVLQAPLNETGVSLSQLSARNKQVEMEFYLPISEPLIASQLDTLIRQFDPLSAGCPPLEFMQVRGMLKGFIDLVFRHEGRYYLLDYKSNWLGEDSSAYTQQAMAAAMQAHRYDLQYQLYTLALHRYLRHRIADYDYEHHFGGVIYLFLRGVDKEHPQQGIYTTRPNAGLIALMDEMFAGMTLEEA

[7] = target: DNA dC->dU-editing enzyme APOBEC-3G (Homo sapiens, UniProt Q9HC16); assay type: functional;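 also: Dose-response counterscreen measuring inhibition of APOBEC3G DNA deaminase activity, run while confirming APOBEC3A inhibitors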
Sequence of DNA dC->dU-editing enzyme APOBEC-3G (Q9HC16 whole entry): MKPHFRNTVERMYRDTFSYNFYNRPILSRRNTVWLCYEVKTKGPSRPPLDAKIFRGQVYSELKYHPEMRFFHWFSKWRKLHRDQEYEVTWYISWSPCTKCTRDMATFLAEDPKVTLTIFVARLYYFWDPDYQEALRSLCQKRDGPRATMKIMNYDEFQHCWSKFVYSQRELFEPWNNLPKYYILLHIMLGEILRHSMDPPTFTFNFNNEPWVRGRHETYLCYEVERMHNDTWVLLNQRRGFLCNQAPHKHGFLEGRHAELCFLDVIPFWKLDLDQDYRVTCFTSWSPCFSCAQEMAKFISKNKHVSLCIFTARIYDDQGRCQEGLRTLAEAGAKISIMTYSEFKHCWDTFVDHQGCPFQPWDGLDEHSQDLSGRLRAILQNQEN

[8] = target: DNA dC->dU-editing enzyme APOBEC-3A (Homo sapiens, UniProt P31941); assay: Dose Response confirmation of small molecule APOBEC3A DNA Deaminase Inhibitors via a fluorescence-based single-stranded DNA deaminase assay. [Related pubchem assays (depositor defined):AID493011, AID493024]; assay type: functional
Sequence of DNA dC->dU-editing enzyme APOBEC-3A (P31941 whole entry): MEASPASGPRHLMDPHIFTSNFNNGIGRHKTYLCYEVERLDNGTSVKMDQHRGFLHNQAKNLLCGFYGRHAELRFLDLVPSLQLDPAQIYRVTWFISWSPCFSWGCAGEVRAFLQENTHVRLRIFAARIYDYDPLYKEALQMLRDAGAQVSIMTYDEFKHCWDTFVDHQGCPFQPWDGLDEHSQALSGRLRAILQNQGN

[9] = Shn3 3'UTR reporter inhibitors, dose response, cell-based, Clone20 osteoblasts, firefly luciferase, cherry-picked (AID 624132); assay type: functional;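 also: firefly luciferase luminescence from reporter carrying the Shn3 3'UTR in osteoblasts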
[10] = cytotoxicity toward NIH3T3 fibroblasts, dose response, counter-screen, cell-based, ATP luminescence, mouse fibroblasts (AID 2010); assay type: functional;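 also: cells exposed to compound for about 90 hours before reading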
[11] = inhibitors of intracellular T. cruzi replication, confirmation, NIH3T3 host cells, beta-gal luminescence (AID 2044); assay type: functional, cell-based;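 also: intracellular parasites grown in NIH/3T3 mouse fibroblasts as host cells; luminescent beta-galactosidase reporter signal from transgenic T. cruzi replicating inside host cells; inhibitors lower the luminescence signal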
[12] = HepG2 cell cytotoxicity, dose response, cytotoxicity control for Shn3 inhibitor project, CellTiter-Glo, cherry-picked (AID 624134); assay type: functional, cell-based
Cytochrome P450 2D6 [13] = target: T1, Cytochrome P450 2D6
[14] = target: T4, Tyrosine-protein phosphatase non-receptor type 7 (Homo sapiens, UniProt P35236); assay: redox-dependent HePTP inhibition, mechanism study, biochemical, fluorescence (AID 2068); assay type: functional
T4 sequence (P35236 whole entry): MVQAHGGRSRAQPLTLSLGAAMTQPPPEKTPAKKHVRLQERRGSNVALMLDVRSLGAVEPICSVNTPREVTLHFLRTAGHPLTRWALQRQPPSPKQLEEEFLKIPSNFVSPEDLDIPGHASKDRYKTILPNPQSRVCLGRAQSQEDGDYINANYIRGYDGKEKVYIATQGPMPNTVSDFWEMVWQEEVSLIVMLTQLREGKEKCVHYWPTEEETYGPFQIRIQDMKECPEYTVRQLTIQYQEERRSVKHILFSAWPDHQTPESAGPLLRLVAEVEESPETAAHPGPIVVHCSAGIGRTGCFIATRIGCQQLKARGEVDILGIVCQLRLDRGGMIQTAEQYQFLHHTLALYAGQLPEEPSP

[15] = target: T5, Dual specificity protein phosphatase 6 (Rattus norvegicus, UniProt Q64346); assay type: functional;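 also: confirmatory in vitro dose-response testing of MKP-3 inhibition; recombinant His-tagged MKP-3 made in E. coli BL21 with OMFP substrate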
T5 sequence (Q64346 whole entry): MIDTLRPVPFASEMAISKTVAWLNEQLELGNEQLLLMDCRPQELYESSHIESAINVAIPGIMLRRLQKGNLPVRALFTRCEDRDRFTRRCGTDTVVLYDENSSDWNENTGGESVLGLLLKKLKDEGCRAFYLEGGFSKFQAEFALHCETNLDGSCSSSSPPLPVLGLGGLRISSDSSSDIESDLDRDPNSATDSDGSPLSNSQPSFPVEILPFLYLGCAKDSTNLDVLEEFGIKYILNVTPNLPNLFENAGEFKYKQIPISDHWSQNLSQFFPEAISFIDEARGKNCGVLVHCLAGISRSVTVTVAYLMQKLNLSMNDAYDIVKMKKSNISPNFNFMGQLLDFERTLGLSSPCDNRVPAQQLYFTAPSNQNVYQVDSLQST

T1 sequence (P10635 whole entry): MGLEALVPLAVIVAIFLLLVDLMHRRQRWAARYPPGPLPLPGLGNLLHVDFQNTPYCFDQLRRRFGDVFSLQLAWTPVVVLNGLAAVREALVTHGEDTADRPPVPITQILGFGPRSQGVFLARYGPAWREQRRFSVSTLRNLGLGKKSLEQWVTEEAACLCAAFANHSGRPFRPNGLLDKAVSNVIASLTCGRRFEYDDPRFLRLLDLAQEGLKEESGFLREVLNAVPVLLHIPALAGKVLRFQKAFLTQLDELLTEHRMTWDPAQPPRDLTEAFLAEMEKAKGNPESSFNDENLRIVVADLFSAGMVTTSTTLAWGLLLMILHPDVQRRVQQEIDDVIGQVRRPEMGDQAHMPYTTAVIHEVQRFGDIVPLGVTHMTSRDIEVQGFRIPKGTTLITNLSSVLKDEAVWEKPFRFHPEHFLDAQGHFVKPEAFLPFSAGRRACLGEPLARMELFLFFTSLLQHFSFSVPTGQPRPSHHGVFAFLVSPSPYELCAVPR

## NCCC[C@@H](CC(=O)N[C@@H]1CCNC[C@H]1C(=O)N[C@H](CC(=O)N[C@@H](CCC(=O)O)CC(=O)O)Cc1c[nH]c2ccccc12)NC(=O)C[C@H](Cc1c[nH]c2ccccc12)NC(=O)[C@@H]1CNCC[C@H]1N
Cytochrome P450 2D6 [1]
  AC50: 39.8 µM (inconclusive)
Cytochrome P450 2C9
  AC50: 31.6 µM (inconclusive)

## CCn1c(=O)cc(SCC(=O)NCC2CCCO2)c2ccccc21 (centres undefined)
[2]
  EC50: > 79.4 µM (not active)
[3]
  EC50: > 79.4 µM (not active)
[4]
  EC50: > 79.4 µM (inactive)

## O=c1c(-c2ccccc2)c(O)c2ccccc2n1-c1ccccc1
CAAX prenyl protease 2
  AC50: 5.31 µM (active)

## COCc1nnc(NC(=O)CCSc2ccccc2)s1
[5]
  EC50: > 32 µM (inactive)

## CCCS(=O)(=O)N1CCC(C(=O)NCc2ccccc2Cl)CC1
[6]
  IC50: > 119 µM (inactive)
Exodeoxyribonuclease V
  IC50: > 119 µM (inactive)

## COc1ccc(/C=C2\Sc3ccc(C(=O)NC4CC4)cc3N(C)C2=O)cc1OC
[5]
  EC50: > 32 µM (inactive)

## CCCC[n+]1c(C)sc2cc(OC)ccc21
[7]
  IC50: > 100 µM (inactive)
[8]
  IC50: 36 µM (active)

## Cc1ccc(CNC(=O)c2ccc3c(O)c(O)c(-c4ccc(C)cc4)nc3c2)cc1
[6]
  IC50: > 119 µM (inactive)
[9]
  AC50: 2.82 µM (active)
Exodeoxyribonuclease V
  IC50: > 119 µM (inactive)
[10]
  EC50: 7.02 µM (active)
[11]
  EC50: 1.14 µM (active)
[12]
  AC50: 3.49 µM (active)

## COc1ccccc1C1=NN(C(S)=Nc2ccccc2)C(c2ccco2)C1 (centres undefined)
[2]
  EC50: > 79.4 µM (not active)
[3]
  EC50: > 79.4 µM (not active)
[4]
  EC50: 19.7 µM (inactive)

## O=C1CN(/N=C\c2ccc(-c3ccc([N+](=O)[O-])cc3)o2)C(O)=N1
Cytochrome P450 2D6 [13]
  AC50: inactive

## O=C(NCCC1=CCCCC1)Nc1ccc2nc(-c3ccco3)c(-c3ccco3)nc2c1
[14]
  IC50: 2.73 µM (active)

## COc1cc(C(=S)NCc2ccc(O)cc2)ccc1O
[14]
  IC50: 10.1 µM (active)
[15]
  IC50: > 100 µM (inactive)

## C[N+](C)(C)CCCCCC(=O)C=NO
[7]
  IC50: 12.6 µM (active)
[8]
  IC50: 5.54 µM (active)

## COc1cc(C(=S)NCc2ccc(C)cc2C)ccc1O
[14]
  IC50: 1.64 µM (active)
[15]
  IC50: > 100 µM (inactive)
